# Measured values reported in patent US12077503B2, “Substituted cyclic amides and their use as herbicides” (FMC CORPORATION, priority 2015, dated 2024).
# Columns and labels:
# Test in all cases: Test C preemergence
# Assay type in all cases: in vivo
# [1] = system: Galium (catchweed bedstraw, Galium aparine); conditions: for Plant response rating (scale of 0 to 100), Galium: 0 is no effect, 100 is complete control
# Procedure, shortened: (§1)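 Scores of 0 to 100 reflect visual comparison with control plants, where 0 means no effect and 100 complete control, made 13 to 15 d after treatment. Application was preemergence to seeds in loam-sand soil or postemergence to plants 2 to 18 cm tall in peat-based mix, using a surfactant-containing solvent formulation.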
# [2] = system: barnyardgrass (Echinochloa crus-galli); conditions: for Plant response rating (scale of 0 to 100), Barnyardgrass: 0 is no effect, 100 is complete control
# Procedure, shortened: as §1
# [3] = system: blackgrass (Alopecurus myosuroides); conditions: for Plant response rating (scale of 0 to 100), Blackgrass: 0 is no effect, 100 is complete control
# Procedure, shortened: as §1
# corn (Zea mays) = conditions: for Plant response rating (scale of 0 to 100), Corn: 0 is no effect, 100 is complete control
# Procedure, shortened: as §1
# [4] = system: crabgrass, large (large crabgrass, Digitaria sanguinalis); conditions: for Plant response rating (scale of 0 to 100), Crabgrass, Large: 0 is no effect, 100 is complete control
# Procedure, shortened: as §1
# [5] = system: foxtail, giant (giant foxtail, Setaria faberii); conditions: for Plant response rating (scale of 0 to 100), Foxtail, Giant: 0 is no effect, 100 is complete control
# Procedure, shortened: as §1
# [6] = system: lambsquarters (Chenopodium album); conditions: for Plant response rating (scale of 0 to 100), Lambsquarters: 0 is no effect, 100 is complete control
# Procedure, shortened: as §1
# [7] = system: morningglory (Ipomoea coccinea); conditions: for Plant response rating (scale of 0 to 100), Morningglory: 0 is no effect, 100 is complete control
# Procedure, shortened: as §1
# [8] = system: nutsedge, yellow (yellow nutsedge, Cyperus esculentus); conditions: for Plant response rating (scale of 0 to 100), Nutsedge, Yellow: 0 is no effect, 100 is complete control
# Procedure, shortened: as §1
# [9] = system: oilseed rape (Brassica napus); conditions: for Plant response rating (scale of 0 to 100), Oilseed Rape: 0 is no effect, 100 is complete control
# Procedure, shortened: as §1
# [10] = system: pigweed (Amaranthus retroflexus); conditions: for Plant response rating (scale of 0 to 100), Pigweed: 0 is no effect, 100 is complete control
# Procedure, shortened: as §1
# [11] = system: ryegrass, Italian (Italian ryegrass, Lolium multiflorum); conditions: for Plant response rating (scale of 0 to 100), Ryegrass, Italian: 0 is no effect, 100 is complete control
# Procedure, shortened: as §1
# soybean (Glycine max) = conditions: for Plant response rating (scale of 0 to 100), Soybean: 0 is no effect, 100 is complete control
# Procedure, shortened: as §1
# [12] = system: velvetleaf (Abutilon theophrasti); conditions: for Plant response rating (scale of 0 to 100), Velvetleaf: 0 is no effect, 100 is complete control
# Procedure, shortened: as §1
# [13] = system: waterhemp (common waterhemp, Amaranthus rudis); conditions: for Plant response rating (scale of 0 to 100), Waterhemp: 0 is no effect, 100 is complete control
# Procedure, shortened: as §1
# [14] = system: wheat (winter wheat, Triticum aestivum); conditions: for Plant response rating (scale of 0 to 100), Wheat: 0 is no effect, 100 is complete control
# Procedure, shortened: as §1
# [15] = 62 g ai/ha, scale 0 to 100, 0 no effect, 100 complete control
compound,measurement,setting,value
CN1CC(c2ccc(C(C)(F)F)cc2)C(C(=O)Nc2cccc(F)c2F)C1=O (stereo not shown) [Compound 690],"Plant response rating (scale of 0 to 100), Galium",[1]; 8 g ai/ha,100
same,"Plant response rating (scale of 0 to 100), Galium",[1]; 16 g ai/ha,90
same,"Plant response rating (scale of 0 to 100), Galium",[1]; 31 g ai/ha,95
same,"Plant response rating, Galium",[1]; [15],98
same,"Plant response rating (scale of 0 to 100), Barnyardgrass",[2]; 8 g ai/ha,85
same,"Plant response rating (scale of 0 to 100), Barnyardgrass",[2]; 16 g ai/ha,95
same,"Plant response rating (scale of 0 to 100), Barnyardgrass",[2]; 31 g ai/ha,95
same,"Plant response rating, Barnyardgrass",[2]; [15],98
same,"Plant response rating (scale of 0 to 100), Blackgrass",[3]; 8 g ai/ha,0
same,"Plant response rating (scale of 0 to 100), Blackgrass",[3]; 16 g ai/ha,0
same,"Plant response rating (scale of 0 to 100), Blackgrass",[3]; 31 g ai/ha,50
same,"Plant response rating, Blackgrass",[3]; [15],55
same,"Plant response rating (scale of 0 to 100), Corn",corn (Zea mays); 8 g ai/ha,20
same,"Plant response rating (scale of 0 to 100), Corn",corn (Zea mays); 16 g ai/ha,10
same,"Plant response rating (scale of 0 to 100), Corn",corn (Zea mays); 31 g ai/ha,20
same,"Plant response rating, Corn",corn (Zea mays); [15],70
same,"Plant response rating (scale of 0 to 100), Crabgrass, Large",[4]; 8 g ai/ha,95
same,"Plant response rating (scale of 0 to 100), Crabgrass, Large",[4]; 16 g ai/ha,98
same,"Plant response rating (scale of 0 to 100), Crabgrass, Large",[4]; 31 g ai/ha,98
same,"Plant response rating, Crabgrass, Large",[4]; [15],100
same,"Plant response rating (scale of 0 to 100), Foxtail, Giant",[5]; 8 g ai/ha,90
same,"Plant response rating (scale of 0 to 100), Foxtail, Giant",[5]; 16 g ai/ha,95
same,"Plant response rating (scale of 0 to 100), Foxtail, Giant",[5]; 31 g ai/ha,95
same,"Plant response rating, Foxtail, Giant",[5]; [15],98
same,"Plant response rating (scale of 0 to 100), Lambsquarters",[6]; 8 g ai/ha,65
same,"Plant response rating (scale of 0 to 100), Lambsquarters",[6]; 16 g ai/ha,65
same,"Plant response rating (scale of 0 to 100), Lambsquarters",[6]; 31 g ai/ha,75
same,"Plant response rating, Lambsquarters",[6]; [15],85
same,"Plant response rating (scale of 0 to 100), Morningglory",[7]; 8 g ai/ha,0
same,"Plant response rating (scale of 0 to 100), Morningglory",[7]; 16 g ai/ha,0
same,"Plant response rating (scale of 0 to 100), Morningglory",[7]; 31 g ai/ha,0
same,"Plant response rating, Morningglory",[7]; [15],0
same,"Plant response rating (scale of 0 to 100), Nutsedge, Yellow",[8]; 8 g ai/ha,0
same,"Plant response rating (scale of 0 to 100), Nutsedge, Yellow",[8]; 16 g ai/ha,0
same,"Plant response rating (scale of 0 to 100), Nutsedge, Yellow",[8]; 31 g ai/ha,0
same,"Plant response rating, Nutsedge, Yellow",[8]; [15],50
same,"Plant response rating (scale of 0 to 100), Oilseed Rape",[9]; 8 g ai/ha,0
same,"Plant response rating (scale of 0 to 100), Oilseed Rape",[9]; 16 g ai/ha,50
same,"Plant response rating (scale of 0 to 100), Oilseed Rape",[9]; 31 g ai/ha,75
same,"Plant response rating, Oilseed Rape",[9]; [15],80
same,"Plant response rating (scale of 0 to 100), Pigweed",[10]; 8 g ai/ha,50
same,"Plant response rating (scale of 0 to 100), Pigweed",[10]; 16 g ai/ha,60
same,"Plant response rating (scale of 0 to 100), Pigweed",[10]; 31 g ai/ha,75
same,"Plant response rating, Pigweed",[10]; [15],90
same,"Plant response rating (scale of 0 to 100), Ryegrass, Italian",[11]; 8 g ai/ha,0
same,"Plant response rating (scale of 0 to 100), Ryegrass, Italian",[11]; 16 g ai/ha,10
same,"Plant response rating (scale of 0 to 100), Ryegrass, Italian",[11]; 31 g ai/ha,40
same,"Plant response rating, Ryegrass, Italian",[11]; [15],45
same,"Plant response rating (scale of 0 to 100), Soybean",soybean (Glycine max); 8 g ai/ha,0
same,"Plant response rating (scale of 0 to 100), Soybean",soybean (Glycine max); 16 g ai/ha,0
same,"Plant response rating (scale of 0 to 100), Soybean",soybean (Glycine max); 31 g ai/ha,0
same,"Plant response rating, Soybean",soybean (Glycine max); [15],0
same,"Plant response rating (scale of 0 to 100), Velvetleaf",[12]; 8 g ai/ha,0
same,"Plant response rating (scale of 0 to 100), Velvetleaf",[12]; 16 g ai/ha,0
same,"Plant response rating (scale of 0 to 100), Velvetleaf",[12]; 31 g ai/ha,20
same,"Plant response rating, Velvetleaf",[12]; [15],50
same,"Plant response rating (scale of 0 to 100), Waterhemp",[13]; 8 g ai/ha,65
same,"Plant response rating (scale of 0 to 100), Waterhemp",[13]; 16 g ai/ha,80
same,"Plant response rating (scale of 0 to 100), Waterhemp",[13]; 31 g ai/ha,90
same,"Plant response rating, Waterhemp",[13]; [15],95
same,"Plant response rating (scale of 0 to 100), Wheat",[14]; 8 g ai/ha,0
same,"Plant response rating (scale of 0 to 100), Wheat",[14]; 16 g ai/ha,5
same,"Plant response rating (scale of 0 to 100), Wheat",[14]; 31 g ai/ha,40
same,"Plant response rating, Wheat",[14]; [15],45
